Consider 1 molecule from patent US20240300934A1, “COMPOUNDS FOR MODULATING MYCOBACTERIUM TUBERCULOSIS RESPONSE” (priority 2021, published 2024).

A short description of series [1]: Human plasma protein binding. Type of series: in vitro ADME.
Procedure: (§1) Assays examining mouse and human liver microsomal stability, kinetic aqueous solubility, mouse and human plasma protein binding and stability, and human cytochrome P450 inhibition characteristics of the compounds were run by BioDuro, Incorporated, using standard protocols as previously described (Wang et al, 2020). hERG inhibition assays were also performed by BioDuro, Incorporated.
The nature of another series: Mouse plasma stability. Particulars: after 5 h incubation. Type of series: in vitro ADME.
The next series can be described thus: Human plasma stability. Type of series: in vitro ADME. Particulars: after 5 h incubation.
Series [2] concerns murine bone marrow derived macrophages phagosome. Nature of the series: Phagosomal maturation assays with sensor beads. The class given is cell-based, mouse. Particulars: 10 μM. The procedure: Carboxyfluorescein (pH readout), DQ-BSA/Alexa Fluor 594 (AF594) (proteolysis readout), and 10,10′-Bis[3-carboxylpropyl]-9,9′-biacridinium (BAC)/AF594 (Cl^− readout) beads were generated as previously described (Podinovskaia et al, 2013; Tan et al, 2013; Tan et al, 2017; Yates et al, 2008). Bone marrow-derived macrophages were isolated from C57BL/6J mice (Jackson Laboratories) and maintained as described above. 2×10^5 macrophages/well were seeded into 96-well clear bottom black plates, and utilized in assays one-two days post-seeding. […] Assay buffer consisted of PBS, pH 7.2, supplemented with 5% FBS, 5 mM dextrose, 1 mM CaCl2, 2.7 mM KCl, and 0.5 mM MgCl2 in the case of assays with the carboxyfluorescein or DQ-BSA/AF594 beads (Buter et al, 2019; Dutta et al, 2020). For assays with the BAC/AF594 beads, assay buffer consisted of PBS, pH 7.2, supplemented with 5% FBS, 5 mM dextrose, 1 mM calcium acetate, 1.35 mM K2SO4, and 0.5 mM MgSO4 (Tan et al, 2013). Sensor beads at ˜2-5 beads/macrophage in appropriate assay buffer were finally added, with data acquisition on a Biotek Synergy H1 microplate reader with bottom read signal detection started within 2-3 minutes of bead addition. Excitation/emission wavelengths were 450 nm/520 nm and 490 nm/520 nm for carboxyfluorescein, 490 nm/520 nm for DQ-BSA, 365 nm/505 nm for BAC, and 590 nm/617 nm for AF594. Each experiment was run with a total of 3-5 replicate wells/condition, with temperature maintained at 37° C. throughout the assay. Wells were read every 2 minutes for 2 hours for the carboxyfluorescein bead assays, every 2 minutes for 4 hours for the DQ-BSA/AF594 bead assays, and every 1 minute for 2 hours for the BAC/AF594 bead assays. Analyses of the results were performed as previously described (Buter et al, 2019; Dutta et al, 2020; Podinovskaia et al, 2013; Tan et al, 2013).

For a further series, the system named is Mtb. Particulars: PubChem AID 1259343, SID 340463129; cited from earlier work.

Procedure for Human plasma stability: as §1
Procedure for Mouse plasma stability: as §1

In the case of `CCSc1ncc(CN2CCN(c3nc4ccccc4o3)CC2)cn1` [Compound C6, 2-(4-((2-(ethylthio)pyrimidin-5-yl)methyl)piperazin-1-yl)benzo[d]oxazole], the “protein binding to human plasma” value in series [1] was determined as 99.2%. Moreover, the “stability in mouse plasma, % remaining” value in “Mouse plasma stability” is recorded as greater than 99.9%. Also, the “stability in human plasma, % remaining” value in the series “Human plasma stability” was 94.6%. Also, the “increase in [Cl−] during macrophage phagosomal maturation” value in series [2] (BAC/AF594 beads) is given as “no significant effect”. Moreover, in series [2] (DQ-BSA/AF594 beads), the “macrophage phagosomal proteolytic activity” value is on record as “did not affect macrophage phagosomal proteolytic activity”. Further, in series [2] (carboxyfluorescein beads), the macrophage phagosomal acidification result was “did not alter macrophage phagosomal acidification”. Further, in the series with Mtb, the “growth inhibition call in previous cholesterol media screen” value is “positive for growth inhibition”.
